Literature values in patent US20160089380A1, “PROGESTERONE IMPREGNATED VAGINAL RING/PESSARY” (YALE UNIVERSITY, priority 2014, published 2016).

How the values were obtained:
[1] = system: women; details: two studies
[2] = system: women

CC(=O)[C@H]1CC[C@H]2[C@@H]3CCC4=CC(=O)CC[C@]4(C)[C@H]3CC[C@]12C [progesterone]
risk of preterm birth <34 weeks (RR) ([1]; 438 women, 95% CI 0.45 to 0.90): 0.64
risk of preterm birth at <28 weeks' gestation (RR) ([1]; 1115 women, 95% CI 0.37 to 0.93): 0.59
risk of preterm birth <37 weeks (average RR) ([2]; 10 studies, 1750 women, 95% CI 0.42 to 0.74): 0.55
risk of preterm birth <34 weeks (average RR) ([2]; five studies, 602 women, 95% CI 0.14 to 0.69): 0.31
increase in pregnancy prolongation, mean difference (MD) ([2]; one study, 148 women, 95% CI 2.15 to 6.79): 4.47 weeks
